From patent US9469650B2, “Melampomagnolide B derivatives” (BOARD OF TRUSTEES OF THE UNIVERSITY OF ARKANSAS, priority 2013, dated 2016)
Like-named read-outs stand apart in the source and are kept apart here.

How the values were obtained:
MDA-MB-231/ATCC = assay: panel of 60 human tumor cell lines, growth inhibition (Breast Cancer); details: MDA-MB-231/ATCC
SK-MEL-2 = assay: panel of 60 human tumor cell lines, growth inhibition (Melanoma); details: SK-MEL-2
HS 578T = assay: panel of 60 human tumor cell lines, growth inhibition (Breast Cancer); details: HS 578T
HCT-15 = assay: panel of 60 human tumor cell lines, growth inhibition (Colon Cancer); details: HCT-15
M14 = assay: panel of 60 human tumor cell lines, growth inhibition (Melanoma); details: M14
NCI-H226 = assay: panel of 60 human tumor cell lines, growth inhibition (Non-Small Cell Lung Cancer); details: NCI-H226
OVCAR-8 = assay: panel of 60 human tumor cell lines, growth inhibition (Ovarian Cancer); details: OVCAR-8
SK-MEL-5 = assay: panel of 60 human tumor cell lines, growth inhibition (Melanoma); details: 8K-MEL-5
IGROV1 = assay: panel of 60 human tumor cell lines, growth inhibition (Ovarian Cancer); details: IGROVI
ACHN = assay: panel of 60 human tumor cell lines, growth inhibition (Renal Cancer)
SF-268 = assay: panel of 60 human tumor cell lines, growth inhibition (CNS Cancer); details: SF-268
MCF7 = assay: panel of 60 human tumor cell lines, growth inhibition (Breast Cancer); details: MCF7
BT-549 = assay: as above; details: BT-549
SN12C = assay: panel of 60 human tumor cell lines, growth inhibition (Renal Cancer)
A549/ATCC = assay: panel of 60 human tumor cell lines, growth inhibition (Non-Small Cell Lung Cancer); details: A549/ATCC
TK-10 = assay: panel of 60 human tumor cell lines, growth inhibition (Renal Cancer); details: TK-10
MDA-MB-435 = assay: panel of 60 human tumor cell lines, growth inhibition (Melanoma); details: MDA-MB-435
NCI-H460 = assay: panel of 60 human tumor cell lines, growth inhibition (Non-Small Cell Lung Cancer); details: NCI-H460

With C=C1C(=O)O[C@H]2[C@H]1CC/C(COC(=O)CCC(=O)N1CCC(C)CC1)=C\CC[C@@]1(C)O[C@@H]21 [JVM 2-70] the “Percent Growth” value (MDA-MB-231/ATCC; Log10 Concentration −4.0) was −85%, the “Percent Growth” value (MDA-MB-231/ATCC; Log10 Concentration −5.0) was 41% and the “Percent Growth” value (MDA-MB-231/ATCC; Log10 Concentration −6.0) was 102%. The “Percent Growth” value (MDA-MB-231/ATCC; Log10 Concentration −7.0) was 97%, the “Percent Growth” value (MDA-MB-231/ATCC; Log10 Concentration −8.0) was 105% and the GI50 (MDA-MB-231/ATCC; NCI five dose) was 7.13 µM. For the same molecule, the TGI (MDA-MB-231/ATCC; NCI five dose) was 2.12E−5, the “Percent Growth” value (SK-MEL-2; Log10 Concentration −4.0) was −82% and the “Percent Growth” value (SK-MEL-2; Log10 Concentration −5.0) was 68%. The “Percent Growth” value (SK-MEL-2; Log10 Concentration −6.0) was 108%, the “Percent Growth” value (SK-MEL-2; Log10 Concentration −7.0) was 112% and the “Percent Growth” value (SK-MEL-2; Log10 Concentration −8.0) was 106%. For the same molecule, the GI50 (SK-MEL-2; NCI five dose) was 13.1 µM, the TGI (SK-MEL-2; NCI five dose) was 2.83E−5 and the “Percent Growth” value (HS 578T; Log10 Concentration −4.0) was 6%. For the same molecule, the “Percent Growth” value (HS 578T; Log10 Concentration −5.0) was 70%, the “Percent Growth” value (HS 578T; Log10 Concentration −6.0) was 86% and the “Percent Growth” value (HS 578T; Log10 Concentration −7.0) was 92%. The “Percent Growth” value (HS 578T; Log10 Concentration −8.0) was 92%, the GI50 (HS 578T; NCI five dose) was 20.4 µM and the TGI (HS 578T; NCI five dose) was greater than 1.00E−4. For the same molecule, the “Percent Growth” value (HCT-15; Log10 Concentration −4.0) was −70%, the “Percent Growth” value (HCT-15; Log10 Concentration −5.0) was −29% and the “Percent Growth” value (HCT-15; Log10 Concentration −6.0) was 74%. For the same molecule, the “Percent Growth” value (HCT-15; Log10 Concentration −7.0) was 91%, the “Percent Growth” value (HCT-15; Log10 Concentration −8.0) was 90% and the GI50 (HCT-15; NCI five dose) was 1.7 µM. For the same molecule, the TGI (HCT-15; NCI five dose) was 5.22E−6, the “Percent Growth” value (M14; Log10 Concentration −4.0) was −81% and the “Percent Growth” value (M14; Log10 Concentration −5.0) was 21%. For the same molecule, the “Percent Growth” value (M14; Log10 Concentration −6.0) was 84%, the “Percent Growth” value (M14; Log10 Concentration −7.0) was 94% and the “Percent Growth” value (M14; Log10 Concentration −8.0) was 91%. For the same molecule, the GI50 (M14; NCI five dose) was 3.44 µM, the TGI (M14; NCI five dose) was 1.60E−5 and the “Percent Growth” value (NCI-H226; Log10 Concentration −4.0) was −59%. For the same molecule, the “Percent Growth” value (NCI-H226; Log10 Concentration −5.0) was 19%, the “Percent Growth” value (NCI-H226; Log10 Concentration −6.0) was 87% and the “Percent Growth” value (NCI-H226; Log10 Concentration −7.0) was 93%. For the same molecule, the “Percent Growth” value (NCI-H226; Log10 Concentration −8.0) was 92%, the GI50 (NCI-H226; NCI five dose) was 3.51 µM and the TGI (NCI-H226; NCI five dose) was 1.75E−5. The “Percent Growth” value (OVCAR-8; Log10 Concentration −4.0) was −88%, the “Percent Growth” value (OVCAR-8; Log10 Concentration −5.0) was 15% and the “Percent Growth” value (OVCAR-8; Log10 Concentration −6.0) was 89%. For the same molecule, the “Percent Growth” value (OVCAR-8; Log10 Concentration −7.0) was 95%, the “Percent Growth” value (OVCAR-8; Log10 Concentration −8.0) was 94% and the GI50 (OVCAR-8; NCI five dose) was 3.37 µM. The TGI (OVCAR-8; NCI five dose) was 1.39E−5, the “Percent Growth” value (SK-MEL-5; Log10 Concentration −4.0) was −93% and the “Percent Growth” value (SK-MEL-5; Log10 Concentration −5.0) was 42%. For the same molecule, the “Percent Growth” value (SK-MEL-5; Log10 Concentration −6.0) was 96%, the “Percent Growth” value (SK-MEL-5; Log10 Concentration −7.0) was 99% and the “Percent Growth” value (SK-MEL-5; Log10 Concentration −8.0) was 98%. The GI50 (SK-MEL-5; NCI five dose) was 7.17 µM, the TGI (SK-MEL-5; NCI five dose) was 2.05E−5 and the “Percent Growth” value (IGROV1; Log10 Concentration −4.0) was −52%. The “Percent Growth” value (IGROV1; Log10 Concentration −5.0) was 19%, the “Percent Growth” value (IGROV1; Log10 Concentration −6.0) was 104% and the “Percent Growth” value (IGROV1; Log10 Concentration −7.0) was 118%. For the same molecule, the “Percent Growth” value (IGROV1; Log10 Concentration −8.0) was 109%, the GI50 (IGROV1; NCI five dose) was 4.32 µM and the TGI (IGROV1; NCI five dose) was 1.85E−5. The “Percent Growth” value (ACHN; Log10 Concentration −4.0) was −79%, the “Percent Growth” value (ACHN; Log10 Concentration −5.0) was 2% and the “Percent Growth” value (ACHN; Log10 Concentration −6.0) was 85%. For the same molecule, the “Percent Growth” value (ACHN; Log10 Concentration −7.0) was 102%, the “Percent Growth” value (ACHN; Log10 Concentration −8.0) was 98% and the GI50 (ACHN; NCI five dose) was 2.64 µM. The TGI (ACHN; NCI five dose) was 1.05E−5, the “Percent Growth” value (HL-60(TB); Log10 Concentration −4.0) was −59% and the “Percent Growth” value (HL-60(TB); Log10 Concentration −5.0) was −12%. For the same molecule, the “Percent Growth” value (HL-60(TB); Log10 Concentration −6.0) was 112%, the “Percent Growth” value (HL-60(TB); Log10 Concentration −7.0) was 111% and the “Percent Growth” value (HL-60(TB); Log10 Concentration −8.0) was 110%. For the same molecule, the GI50 (HL-60(TB); NCI five dose) was 3.16 µM, the TGI (HL-60(TB); NCI five dose) was 7.96E−6 and the CC50 (HL-60(TB); read-out: LC50, NCI five dose) was 63.1 µM. The “Percent Growth” value (SF-268; Log10 Concentration −4.0) was −72%, the “Percent Growth” value (SF-268; Log10 Concentration −5.0) was 67% and the “Percent Growth” value (SF-268; Log10 Concentration −6.0) was 93%. The “Percent Growth” value (SF-268; Log10 Concentration −7.0) was 101%, the “Percent Growth” value (SF-268; Log10 Concentration −8.0) was 100% and the GI50 (SF-268; NCI five dose) was 13.2 µM. The TGI (SF-268; NCI five dose) was 3.02E−5, the “Percent Growth” value (MCF7; Log10 Concentration −4.0) was −63% and the “Percent Growth” value (MCF7; Log10 Concentration −5.0) was 4%. The “Percent Growth” value (MCF7; Log10 Concentration −6.0) was 74%, the “Percent Growth” value (MCF7; Log10 Concentration −7.0) was 88% and the “Percent Growth” value (MCF7; Log10 Concentration −8.0) was 83%. The GI50 (MCF7; NCI five dose) was 2.22 µM, the TGI (MCF7; NCI five dose) was 1.16E−5 and the “Percent Growth” value (BT-549; Log10 Concentration −4.0) was −96%. The “Percent Growth” value (BT-549; Log10 Concentration −5.0) was −10%, the “Percent Growth” value (BT-549; Log10 Concentration −6.0) was 71% and the “Percent Growth” value (BT-549; Log10 Concentration −7.0) was 86%. The “Percent Growth” value (BT-549; Log10 Concentration −8.0) was 81%, the GI50 (BT-549; NCI five dose) was 1.82 µM and the TGI (BT-549; NCI five dose) was 7.55E−6. The “Percent Growth” value (SN12C; Log10 Concentration −4.0) was −82%, the “Percent Growth” value (SN12C; Log10 Concentration −5.0) was 30% and the “Percent Growth” value (SN12C; Log10 Concentration −6.0) was 92%. For the same molecule, the “Percent Growth” value (SN12C; Log10 Concentration −7.0) was 93%, the “Percent Growth” value (SN12C; Log10 Concentration −8.0) was 97% and the GI50 (SN12C; NCI five dose) was 4.8 µM. The TGI (SN12C; NCI five dose) was 1.86E−5, the “Percent Growth” value (A549/ATCC; Log10 Concentration −4.0) was −68% and the “Percent Growth” value (A549/ATCC; Log10 Concentration −5.0) was 79%. The “Percent Growth” value (A549/ATCC; Log10 Concentration −6.0) was 93%, the “Percent Growth” value (A549/ATCC; Log10 Concentration −7.0) was 96% and the “Percent Growth” value (A549/ATCC; Log10 Concentration −8.0) was 97%. For the same molecule, the GI50 (A549/ATCC; NCI five dose) was 15.8 µM, the TGI (A549/ATCC; NCI five dose) was 3.47E−5 and the “Percent Growth” value (TK-10; Log10 Concentration −4.0) was −97%. For the same molecule, the “Percent Growth” value (TK-10; Log10 Concentration −5.0) was 9%, the “Percent Growth” value (TK-10; Log10 Concentration −6.0) was 109% and the “Percent Growth” value (TK-10; Log10 Concentration −7.0) was 106%. The “Percent Growth” value (TK-10; Log10 Concentration −8.0) was 97%, the GI50 (TK-10; NCI five dose) was 3.9 µM and the TGI (TK-10; NCI five dose) was 1.23E−5. The “Percent Growth” value (MDA-MB-435; Log10 Concentration −4.0) was −72%, the “Percent Growth” value (MDA-MB-435; Log10 Concentration −5.0) was 32% and the “Percent Growth” value (MDA-MB-435; Log10 Concentration −6.0) was 90%. For the same molecule, the “Percent Growth” value (MDA-MB-435; Log10 Concentration −7.0) was 95%, the “Percent Growth” value (MDA-MB-435; Log10 Concentration −8.0) was 89% and the GI50 (MDA-MB-435; NCI five dose) was 4.84 µM. For the same molecule, the TGI (MDA-MB-435; NCI five dose) was 2.03E−5, the “Percent Growth” value (NCI-H460; Log10 Concentration −4.0) was −57% and the “Percent Growth” value (NCI-H460; Log10 Concentration −5.0) was 77%. For the same molecule, the “Percent Growth” value (NCI-H460; Log10 Concentration −6.0) was 99%, the “Percent Growth” value (NCI-H460; Log10 Concentration −7.0) was 101% and the “Percent Growth” value (NCI-H460; Log10 Concentration −8.0) was 100%. For the same molecule, the GI50 (NCI-H460; NCI five dose) was 16 µM and the TGI (NCI-H460; NCI five dose) was 3.76E−5.
